Experiments:
Format in all cases: in vivo
[1] = tested on: pigweed (Amaranthus retroflexus); test: Test A postemergence application, visual injury rating; conditions: 0 to 100 scale, 0 no effect, 100 complete control
Outline: (§1)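 Seeds sown in a loam soil–sand blend received a directed preemergence soil spray of test chemical in a non-phytotoxic solvent mixture with surfactant. Postemergence plants were sprayed at 2 to 10 cm, one- to two-leaf stage. After approximately 10 d in greenhouse, injury was visually rated 0 (no effect) to 100 (complete control) against untreated controls.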

[2] = tested on: ryegrass, It. (Italian ryegrass, Lolium multiflorum); test: as above; conditions: 0 to 100 scale, 0 no effect, 100 complete control
Outline: as §1

corn (Zea mays) = test: as above; conditions: 0 to 100 scale, 0 no effect, 100 complete control
Outline: as §1

[3] = tested on: barnyardgrass (Echinochloa crus-galli); test: as above; conditions: 0 to 100 scale, 0 no effect, 100 complete control
Outline: as §1

[4] = tested on: foxtail, giant (giant foxtail, Setaria faberii); test: as above; conditions: 0 to 100 scale, 0 no effect, 100 complete control
Outline: as §1

[5] = tested on: galium (catchweed bedstraw, Galium aparine); test: as above; conditions: 0 to 100 scale, 0 no effect, 100 complete control
Outline: as §1

[6] = tested on: wheat (Triticum aestivum); test: as above; conditions: 0 to 100 scale, 0 no effect, 100 complete control
Outline: as §1

kochia (Kochia scoparia) [7] = test: as above; conditions: 0 to 100 scale, 0 no effect, 100 complete control
Outline: as §1

[8] = tested on: ragweed (common ragweed, Ambrosia elatior); test: as above; conditions: 0 to 100 scale, 0 no effect, 100 complete control
Outline: as §1

[9] = tested on: blackgrass (Alopecurus myosuroides); test: as above; conditions: 0 to 100 scale, 0 no effect, 100 complete control
Outline: as §1

[10] = tested on: pigweed (Amaranthus retroflexus); test: Test A preemergence, directed soil spray, visual injury rating; conditions: 0 is no effect, 100 is complete control
Outline: as §1

[11] = tested on: ryegrass, It. (Italian ryegrass, Lolium multiflorum); test: as above; conditions: 0 is no effect, 100 is complete control
Outline: as §1

[12] = tested on: barnyardgrass (Echinochloa crus-galli); test: as above; conditions: 0 is no effect, 100 is complete control
Outline: as §1

[13] = tested on: foxtail, giant (giant foxtail, Setaria faberii); test: as above; conditions: 0 is no effect, 100 is complete control
Outline: as §1

kochia (Kochia scoparia) [14] = test: as above; conditions: 0 is no effect, 100 is complete control
Outline: as §1

[15] = tested on: ragweed (common ragweed, Ambrosia elatior); test: as above; conditions: 0 is no effect, 100 is complete control
Outline: as §1

[16] = tested on: ducksalad (Heteranthera limosa); test: Test B flooded paddy test, visual rating; conditions: Flood, 250 g ai/ha, applied to paddy water, rated after 13 to 15 d
Outline: (§2)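 Plants at the 2-leaf stage were flooded to 3 cm above soil, and test compounds were applied directly into the paddy water, which was held at that depth throughout. After 13 to 15 d in a greenhouse, injury was rated visually against untreated controls on a 0–100 scale (0 no effect, 100 complete control).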

[17] = tested on: barnyardgrass (Echinochloa crus-galli); test: Test B flooded paddy test, visual rating; conditions: Flood, 250 g ai/ha, applied to paddy water, rated after 13 to 15 d
Outline: as §2

[18] = tested on: sedge, umbrella (small-flower umbrella sedge, Cyperus difformis); test: Test B flooded paddy test, visual rating; conditions: Flood, 250 g ai/ha, applied to paddy water, rated after 13 to 15 d
Outline: as §2

rice (Oryza sativa) = test: Test B flooded paddy test, visual rating; conditions: Flood, 250 g ai/ha, applied to paddy water, rated after 13 to 15 d
Outline: as §2

Row | SMILES | Pigweed plant response rating ([1]; 31 g ai/ha) | Pigweed plant response rating ([1]; 125 g ai/ha) | Ryegrass, It. plant response rating ([2]; 31 g ai/ha) | Ryegrass, It. plant response rating ([2]; 125 g ai/ha) | Corn plant response rating (corn (Zea mays); 31 g ai/ha) | Corn plant response rating (corn (Zea mays); 125 g ai/ha) | Barnyardgrass plant response rating ([3]; 31 g ai/ha) | Barnyardgrass plant response rating ([3]; 125 g ai/ha) | Foxtail, Giant plant response rating ([4]; 31 g ai/ha) | Foxtail, Giant plant response rating ([4]; 125 g ai/ha) | Galium plant response rating ([5]; 31 g ai/ha) | Galium plant response rating ([5]; 125 g ai/ha) | Wheat plant response rating ([6]; 31 g ai/ha) | Wheat plant response rating ([6]; 125 g ai/ha) | Kochia plant response rating (kochia (Kochia scoparia) [7]; 31 g ai/ha) | Kochia plant response rating (kochia (Kochia scoparia) [7]; 125 g ai/ha) | Ragweed plant response rating ([8]; 31 g ai/ha) | Ragweed plant response rating ([8]; 125 g ai/ha) | Blackgrass plant response rating ([9]; 31 g ai/ha) | Blackgrass plant response rating ([9]; 125 g ai/ha) | further results
1 | CCC(=O)Oc1c(C)nn(C)c(=O)c1-c1ccc(Cl)c2cc(C)oc12 [Compound 41] | 40 | 70 | 90 | 100 | 0 | 20 | 20 | 50 | 20 | 60 | 90 | 100 | 0 | 0 | 0 | 0 | 80 | 80 | 20 | 50 | Plant response rating (0 to 100 scale), Pigweed ([10]; 31 g ai/ha): 0; Plant response rating (0 to 100 scale), Pigweed ([10]; 125 g ai/ha): 90; Plant response rating (0 to 100 scale), Ryegrass, It. ([11]; 31 g ai/ha): 90; Plant response rating (0 to 100 scale), Ryegrass, It. ([11]; 125 g ai/ha): 100; Plant response rating (0 to 100 scale), Barnyardgrass ([12]; 31 g ai/ha): 0; Plant response rating (0 to 100 scale), Barnyardgrass ([12]; 125 g ai/ha): 70; Plant response rating (0 to 100 scale), Foxtail, Giant ([13]; 31 g ai/ha): 20; Plant response rating (0 to 100 scale), Foxtail, Giant ([13]; 125 g ai/ha): 80; Plant response rating (0 to 100 scale), Kochia (kochia (Kochia scoparia) [14]; 31 g ai/ha): 0; Plant response rating (0 to 100 scale), Kochia (kochia (Kochia scoparia) [14]; 125 g ai/ha): 0; Plant response rating (0 to 100 scale), Ragweed ([15]; 31 g ai/ha): 0; Plant response rating (0 to 100 scale), Ragweed ([15]; 125 g ai/ha): 70; Ducksalad plant response rating (0 to 100 scale, 0 is no effect, 100 is complete control) [16]: 20; Barnyardgrass plant response rating (0 to 100 scale, 0 is no effect, 100 is complete control) [17]: 20; Sedge, Umbrella plant response rating (0 to 100 scale, 0 is no effect, 100 is complete control) [18]: 75; Rice plant response rating (0 to 100 scale, 0 is no effect, 100 is complete control) (rice (Oryza sativa)): 0
2 | CC(=O)Oc1c(C)nn(C)c(=O)c1-c1ccc(Cl)c2cc(C)oc12 [Compound 42] | 30 | 50 | 70 | 90 | 0 | 10 | 10 | 40 | 10 | 30 | 90 | 90 | 0 | 0 | 0 | 0 | 20 | 10 | 20 | 50 | Plant response rating (0 to 100 scale), Pigweed ([10]; 31 g ai/ha): 0; Plant response rating (0 to 100 scale), Pigweed ([10]; 125 g ai/ha): 40; Plant response rating (0 to 100 scale), Ryegrass, It. ([11]; 31 g ai/ha): 60; Plant response rating (0 to 100 scale), Ryegrass, It. ([11]; 125 g ai/ha): 90; Plant response rating (0 to 100 scale), Barnyardgrass ([12]; 31 g ai/ha): 10; Plant response rating (0 to 100 scale), Barnyardgrass ([12]; 125 g ai/ha): 60; Plant response rating (0 to 100 scale), Foxtail, Giant ([13]; 31 g ai/ha): 10; Plant response rating (0 to 100 scale), Foxtail, Giant ([13]; 125 g ai/ha): 50; Plant response rating (0 to 100 scale), Kochia (kochia (Kochia scoparia) [14]; 31 g ai/ha): 0; Plant response rating (0 to 100 scale), Kochia (kochia (Kochia scoparia) [14]; 125 g ai/ha): 0; Plant response rating (0 to 100 scale), Ragweed ([15]; 31 g ai/ha): 30; Plant response rating (0 to 100 scale), Ragweed ([15]; 125 g ai/ha): 40; Ducksalad plant response rating (0 to 100 scale, 0 is no effect, 100 is complete control) [16]: 80; Barnyardgrass plant response rating (0 to 100 scale, 0 is no effect, 100 is complete control) [17]: 0; Sedge, Umbrella plant response rating (0 to 100 scale, 0 is no effect, 100 is complete control) [18]: 60; Rice plant response rating (0 to 100 scale, 0 is no effect, 100 is complete control) (rice (Oryza sativa)): 0
